Series [1] has as its system advanced Alzheimer's disease. Nature of the series: Clinical case study: Alzheimer's disease (Example 5). It is filed as in vivo, human. To be noted: Case 20, 1.2 g curcumin bid, after 30 days. An excerpt:
A person was presented with advanced Alzheimer's disease. Prior to dosing, they failed all short term memory questions on a test. […] They have continued to have lasting benefit from the therapy.

Details of series [2]: species or system mice. Conditions: mouse, in vivo. The procedure: Mice weighed ˜25 g each. Blood was drawn every 30 minutes for 180 total minutes.

The structures appear in SMILES notation.

Regarding `COc1cc(C=CC(=O)CC(=O)C=Cc2ccc(O)c(OC)c2)ccc1O` [curcumin, 1,7-bis[4-hydroxy-3-methoxyphenyl]-1,6-heptadiene-3,5-dione], in series [1], the “short term memory questions on a test, advanced Alzheimer's disease” value is listed as “passed all short term memory questions”. For the same compound, the absorbability / bioavailability result in series [2] was “very poor absorbability”.
